Values after ≈ are worked out from the molar mass of the structure shown. Read-outs that look alike come from different tables or passages of the source.
Columns and labels:
[1] = system: Mycobacterium tuberculosis H37Rv (ATCC 27294); format: cell-based; settings: for Log reduction in CFU: vs drug-free control
[2] = system: M. tuberculosis Erdman pFCA LuxAB; settings: for reduction compared to the vehicle group: conjugate 100, rifampicin 10, metronidazole 200 mg/kg; for Log reduction compared to untreated group / Log10 CFU counts in the lungs, Average: QD for 12 days; for Log reduction compared to untreated group / Log10 CFU counts in the lungs, Mouse A / Log10 CFU counts in the lungs, Mouse B / Log10 CFU counts in the lungs, Mouse C / Log10 CFU counts in the lungs, Mouse D / Log10 CFU counts in the lungs, Mouse E / Log10 CFU counts in the lungs, Mouse F / Log10 CFU counts in the lungs, Average: conjugate 100, linezolid 100, PA-824 50, rifampicin 10, metronidazole 200 mg/kg; for Log10 CFU counts in the lungs, Mouse A / Log10 CFU counts in the lungs, Mouse B / Log10 CFU counts in the lungs, Mouse C / Log10 CFU counts in the lungs, Mouse D / Log10 CFU counts in the lungs, Mouse E / Log10 CFU counts in the lungs, Mouse F / Log10 CFU counts in the lungs, Average: day 21; for Log10 CFU counts in the lungs, Mouse A / Log10 CFU counts in the lungs, Mouse B / Log10 CFU counts in the lungs, Mouse C / Log10 CFU counts in the lungs, Mouse D / Log10 CFU counts in the lungs, Mouse E / Log10 CFU counts in the lungs, Mouse F: QD for 12 days from day 7; for Log10 CFU counts in the lungs, Average: group average, 6 mice
[3] = system: clinical isolates of Mycobacterium tuberculosis; assay: microbe, parasite or virus in culture; format: cell-based; settings: for MIC: Mycobacterium tuberculosis
[4] = 168 h, clinical isolate strain 1, air with 5% CO2, 7H9/10% OADC, 7 days
[5] = 168 h, clinical isolate strain 2, air with 5% CO2, 7H9/10% OADC, 7 days
[6] = 168 h, clinical isolate strain 3, air with 5% CO2, 7H9/10% OADC, 7 days
[7] = 168 h, clinical isolate strain 4, air with 5% CO2, 7H9/10% OADC, 7 days
[8] = 168 h, clinical isolate strain 5, air with 5% CO2, 7H9/10% OADC, 7 days
[9] = 168 h, clinical isolate strain 6, air with 5% CO2, 7H9/10% OADC, 7 days
[10] = 168 h, clinical isolate strain 7, air with 5% CO2, 7H9/10% OADC, 7 days
[11] = 168 h, clinical isolate strain 8, air with 5% CO2, 7H9/10% OADC, 7 days
[12] = 168 h, clinical isolate strain 9, air with 5% CO2, 7H9/10% OADC, 7 days
[13] = 168 h, clinical isolate strain 10, air with 5% CO2, 7H9/10% OADC, 7 days
[14] = 168 h, clinical isolate strain 11 (sensitive strain), air with 5% CO2, 7H9/10% OADC, 7 days
[15] = read-out: MIC values against sensitive tuberculosis strains, sensitive tuberculosis strains, air containing 5% CO2

| SMILES | CFU/mL ([1]; concentration 5 μg/mL) [CFU/mL] | Log reduction in CFU ([1]; concentration 5 μg/mL) | CFU/mL ([1]; concentration 20 μg/mL) [CFU/mL] | Log reduction in CFU ([1]; concentration 20 μg/mL) | Log reduction compared to untreated group ([2]; […]) | Log10 CFU counts in the lungs, Mouse A [2] [Log10 CFU] | Log10 CFU counts in the lungs, Mouse B [2] [Log10 CFU] | Log10 CFU counts in the lungs, Mouse C [2] [Log10 CFU] | Log10 CFU counts in the lungs, Mouse D [2] [Log10 CFU] | Log10 CFU counts in the lungs, Mouse E [2] [Log10 CFU] | Log10 CFU counts in the lungs, Mouse F [2] [Log10 CFU] | Log10 CFU counts in the lungs, Average [2] [Log10 CFU] | MIC [3, 4] [µg/mL] | MIC [3, 5] [µg/mL] | MIC [3, 6] [µg/mL] | MIC [3, 7] [µg/mL] | MIC [3, 8] [µg/mL] | MIC [3, 9] [µg/mL] | MIC [3, 10] [µg/mL] | MIC [3, 11] [µg/mL] | further results |
| --- | --- | --- | --- | --- | --- | --- | --- | --- | --- | --- | --- | --- | --- | --- | --- | --- | --- | --- | --- | --- | --- |
| CO[C@H]1/C=C/O[C@@]2(C)Oc3c(C)c(O)c4c(c3C2=O)C2=NC3(CCN(CCn5c([N+](=O)[O-])cnc5C)CC3)NC2=C(NC(=O)/C(C)=C\C=C\[C@H](C)[C@H](O)[C@@H](C)[C@@H](O)[C@@H](C)[C@H](OC(C)=O)[C@@H]1C)C4=O | 9.75E+03 | 4.39 | 2.50E+03 | 4.98 | 4.18 | 2.48 | 2.18 | 3.02 | 2.48 | 3.80 | 2.18 | 2.69 | 2 (≈ 2.12 µM) | 0.5 (≈ 0.53 µM) | 2 (≈ 2.12 µM) | 2 (≈ 2.12 µM) | 2 (≈ 2.12 µM) | 1 (≈ 1.06 µM) | 2 (≈ 2.12 µM) | 2 (≈ 2.12 µM) | reduction of bacterial count of wild-type Mycobacterium Tuberculosis compared to the drug-free group ([1]; at both tested concentrations (20 μg/mL and 5 μg/mL)): > 4 Log10 CFU; reduction compared to the pre-treatment ([2]; […], 100 mg/kg orally QD, 12 consecutive days): 0.69 log CFU; reduction compared to the vehicle group ([2]; […], 12 consecutive days): 4 log CFU; activity compared to vehicle, rifampicin, metronidazole, linezolid and PA-824 control groups ([2]; […], one-way ANOVA, 95% level of confidence): significantly superior; drug-related tolerance issues ([2]; mice, after 12 consecutive days of administration, 100 mg/kg QD): no drug-related tolerance issues were observed; MIC [3, 12]: 0.5 µg/mL (≈ 0.53 µM); MIC [3, 13]: 1 µg/mL (≈ 1.06 µM); MIC [3, 14]: 0.016 µg/mL (≈ 0.0169 µM); MIC [3, 15]: 0.016 µg/mL (≈ 0.0169 µM) |
| NNC(=O)c1ccncc1 [Isoniazid, isoniazid] | – | – | – | – | – | – | – | – | – | – | – | – | > 40 | 2.5 (≈ 18.2 µM) | 10 (≈ 72.9 µM) | > 40 | 5 (≈ 36.5 µM) | 0.313 (≈ 2.28 µM) | 5 (≈ 36.5 µM) | 2.5 (≈ 18.2 µM) | CFU/mL ([1]; concentration 10 μg/mL): 3.14E+08 CFU/mL; Log reduction in CFU ([1]; concentration 10 μg/mL): −0.12; MIC [3, 12]: > 40 µg/mL; MIC [3, 13]: > 40 µg/mL; MIC [3, 14]: 0.039 µg/mL (≈ 0.284 µM); MIC [3, 15]: 0.039 µg/mL (≈ 0.284 µM) |
| Cc1ncc([N+](=O)[O-])n1CCO [Metronidazole, metronidazole] | – | – | 1.66E+08 | 0.16 | 0.02 | 6.95 | 6.95 | 6.15 | 6.60 | 7.11 | 7.31 | 6.85 | > 32 | > 32 | > 32 | > 32 | > 32 | > 32 | > 32 | > 32 | CFU/mL ([1]; concentration 50 μg/mL): 1.02E+08 CFU/mL; Log reduction in CFU ([1]; concentration 50 μg/mL): 0.37; reduction compared to the vehicle group ([2]; […], 12 consecutive days): 0.09 log CFU; MIC [3, 12]: > 32 µg/mL; MIC [3, 13]: > 32 µg/mL; MIC [3, 14]: > 32 µg/mL; activity against the tested strains ([3]; all tested strains, air containing 5% CO2): no activity |
| O=[N+]([O-])c1cn2c(n1)OC[C@@H](OCc1ccc(OC(F)(F)F)cc1)C2 [PA-824] | – | – | – | – | 3.04 | 3.29 | 4.00 | 4.06 | 3.65 | 4.01 | 3.97 | 3.83 | – | – | – | – | – | – | – | – | – |
| CO[C@H]1/C=C/O[C@@]2(C)Oc3c(C)c(O)c4c(c3C2=O)C2=NC3(CCN(CC(C)C)CC3)NC2=C(NC(=O)/C(C)=C\C=C\[C@H](C)[C@H](O)[C@@H](C)[C@@H](O)[C@@H](C)[C@H](OC(C)=O)[C@@H]1C)C4=O [Rifabutin, rifabutin] | 9.77E+07 | 0.39 | 7.19E+06 | 1.52 | – | – | – | – | – | – | – | – | – | – | – | – | – | – | – | – | – |
| CO[C@H]1/C=C/O[C@@]2(C)Oc3c(C)c(O)c4c(O)c(c(/C=N/N5CCN(C)CC5)c(O)c4c3C2=O)NC(=O)/C(C)=C\C=C\[C@H](C)[C@H](O)[C@@H](C)[C@@H](O)[C@@H](C)[C@H](OC(C)=O)[C@@H]1C [Rifampicin, rifampicin] | 2.19E+07 | 1.04 | 1.23E+07 | 1.29 | 0.58 | 6.29 | 6.55 | 6.66 | 6.24 | 5.52 | 6.46 | 6.29 | > 40 | 5 (≈ 6.08 µM) | > 40 | > 40 | > 40 | > 40 | > 40 | > 40 | reduction compared to the vehicle group ([2]; […], 12 consecutive days): 0.65 log CFU; MIC [3, 12]: 20 µg/mL (≈ 24.3 µM); MIC [3, 13]: 40 µg/mL (≈ 48.6 µM); MIC [3, 14]: 0.039 µg/mL (≈ 0.0474 µM); MIC [3, 15]: 0.039 µg/mL (≈ 0.0474 µM) |
| CO[C@H]1/C=C/O[C@@]2(C)Oc3c(C)c(O)c4c(O)c(c(/C=N/N5CCN(C6CCCC6)CC5)c(O)c4c3C2=O)NC(=O)/C(C)=C\C=C\[C@H](C)[C@H](O)[C@@H](C)[C@@H](O)[C@@H](C)[C@H](OC(C)=O)[C@@H]1C [Rifapentine, rifapentine] | 1.80E+07 | 1.12 | 1.91E+07 | 1.1 | – | – | – | – | – | – | – | – | – | – | – | – | – | – | – | – | – |
| CC(=O)NC[C@H]1CN(c2ccc(N3CCOCC3)c(F)c2)C(=O)O1 [linezolid] | – | – | – | – | 1.57 | 5.86 | 4.61 | 5.76 | 4.59 | 5.13 | – | 5.30 | – | – | – | – | – | – | – | – | – |
